Laboratory results from PubChem BioAssay (NCI).
Where “and” joins values, the source holds several entries; their conditions need not be identical. Identical values can stand only once.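 Tested at 5 concentrations; 48 h exposure; 96-well plates; endpoints linearly interpolated, else capped at highest concentration. GI50: concentration for 50% inhibition of growth. TGI: concentration producing complete growth inhibition.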

Tests used:
Assay in all cases: NCI-60 cell line screen, 48 h
SK-MEL-28 melanoma = tested on: SK-MEL-28 melanoma
PC-3 prostate = tested on: PC-3 prostate
HCT-15 colon = tested on: HCT-15 colon
MDA-MB-435 = tested on: MDA-MB-435
SF-295 CNS = tested on: SF-295 CNS
HL-60(TB) leukemia = tested on: HL-60(TB) leukemia
OVCAR-4 ovarian = tested on: OVCAR-4 ovarian
RPMI-8226 leukemia = tested on: RPMI-8226 leukemia
MALME-3M melanoma = tested on: MALME-3M melanoma
M14 melanoma = tested on: M14 melanoma

Structure (SMILES) | GI50 (SK-MEL-28 melanoma) | TGI (SK-MEL-28 melanoma) [µM] | GI50 (PC-3 prostate) | TGI (PC-3 prostate) | GI50 (HCT-15 colon) [µM] | TGI (HCT-15 colon) | GI50 (MDA-MB-435) | TGI (MDA-MB-435) | GI50 (SF-295 CNS) | TGI (SF-295 CNS) [µM] | GI50 (HL-60(TB) leukemia) [µM] | TGI (HL-60(TB) leukemia) | GI50 (OVCAR-4 ovarian) [µM] | TGI (OVCAR-4 ovarian) [µM] | GI50 (RPMI-8226 leukemia) | TGI (RPMI-8226 leukemia) [µM] | GI50 (MALME-3M melanoma) | TGI (MALME-3M melanoma) [µM] | GI50 (M14 melanoma) | TGI (M14 melanoma) [µM]
Cc1ncc(C(=O)Nc2ccc(CN3CCN(C)CC3)c(C(F)(F)F)c2)cc1C#Cc1c(N)ncc2ccc(C#N)cc12 | 0.0676 µM | 1.91 | 4.49 µM | 19.3 µM | 0.547 | 8.86 µM | 0.163 µM | 3.31 µM | > 26.7 µM | > 50 | 9.24 | > 50 µM | 0.975 | 11 | 1.21 µM | 9.18 | 0.0167 µM | 0.157 | 0.029 µM | 0.659
CCOP1(=O)OCC2OC(n3cnc4c(N)ncnc43)C(O)C2O1 (stereo unspecified) |  | > 100 |  | > 100 µM |  | > 100 µM |  | > 100 µM |  | > 100 |  | > 100 µM |  | > 100 |  | > 100 |  | > 100 |  | > 100
Cc1c2c(n3c(nc4ccccc43)c1C#N)SCC2 |  | > 10 |  | > 10 µM |  | > 10 µM |  | > 10 µM |  | > 10 |  | > 10 µM |  | > 10 |  | > 10 |  | > 10 |  | > 10
CCOC(=O)c1cnc2ccc(Cl)cc2c1NCCCN(C)C | 22.9 µM | 56.3 | 27.3 µM | > 100 µM | 25.2 | > 100 µM | 17.9 µM | 43.5 µM | 22.9 µM | > 100 | 19.4 | 50.8 µM | 23.6 | > 100 | 20.7 µM | 54.9 | 19.1 µM | 38.7 | 17.8 µM | 33
C1=C[C@@H]2c3ccc4cnccc4c3NC[C@@H]2C1 |  | > 100 |  | > 100 µM |  | > 100 µM |  | > 100 µM |  | > 100 |  | > 100 µM |  |  |  | > 100 |  | > 100 |  | > 100
Cc1nc2c(cnn2-c2ccnc3c(C(F)(F)F)cccc23)c(=O)o1 | > 100 µM | > 100 | > 100 µM | > 100 µM | > 100 | > 100 µM | > 100 µM | > 100 µM | > 100 µM | > 100 | > 100 | > 100 µM | > 100 | > 100 | > 100 µM | > 100 | > 100 µM | > 100 |  | 
COC1CC(OC2OC(CO)C(O)C(O)C2O)/C(=C\C#N)C(O)C1OC (stereo unspecified) |  | > 100 |  | > 100 µM |  | > 100 µM |  | > 100 µM |  | > 100 |  | > 100 µM |  | > 100 |  | > 100 |  | > 100 |  | > 100
C=C1C(=O)O[C@@H]2[C@@H]3O[C@@](C)(CC/C=C(\C)CCC[C@@H]2C)[C@H](O)C[C@@H]13 | 3.13 µM | 12.2 | 4.31 µM | 18.3 µM | 1.64 | 4.53 µM | 1.89 µM | 5.47 µM |  | 27.6 |  | 8.1 µM | 2.63 | 11.7 |  | > 100 | 1.76 µM | 4.11 | 1.72 µM | 3.48
COc1cc(-c2cc(-c3ccc(N(C)C)cc3)nc(N3CCC(O)CC3)c2C#N)cc(OC)c1OC | 0.992 µM | 3.23 | 0.895 µM | > 100 µM | 0.306 | 1.86 µM | 0.325 µM | 1.27 µM | 0.212 µM | 0.518 | 0.574 | 4.13 µM | 1.21 | > 100 | 0.181 µM | 1.74 | 0.475 µM | 1.54 | 0.282 µM | 1.3
Cc1cc(Cl)n2c(nc3ccccc32)c1C#N | 1.4 µM | 6.34 | 0.383 µM | 1.6 µM | 0.53 | 4.12 µM | 0.327 µM | 1.6 µM | 0.521 µM | 4.91 | 0.241 | 1.09 µM | 0.971 | 3.43 | 0.231 µM | 2.45 | 0.858 µM | 2.63 | 0.395 µM | 2.04
Cn1cc(-c2ccc3cc(-c4ccc(CC(=O)Nc5cc(C(C)(C)C)nn5C)cc4)cnc3c2)cn1 | 0.41 µM | > 100 | 0.36 µM | > 100 µM | 0.157 | > 100 µM | 0.309 µM | > 100 µM | 0.307 µM | > 100 | 0.314 |  | 0.159 | > 100 | 0.254 µM | 1.78 | 0.146 µM | > 100 | 0.144 µM | > 100
COc1ccc(C2SC(N)=Nc3c2c(C)nn3C(=O)c2ccncc2)cc1 (stereo unspecified) |  | > 100 |  | > 100 µM |  | > 100 µM |  | > 100 µM |  | > 100 |  | > 100 µM |  | > 100 |  | > 100 |  | > 100 |  | > 100
Cc1cc(O)c2c(c1)C[C@@H](O)C1=C2C(=O)c2c(O)ccc(OC3CC(O)C(OC4CC(OC5CCC(OC6CC(O)C(OC7CC(OC8CCC(O)C(C)O8)C(O)C(C)O7)C(C)O6)C(C)O5)C(O)C(C)O4)C(C)O3)c2C1=O (stereo partly specified) | 0.267 µM and 1.44 µM |  | 0.4 µM and 0.849 µM | 0.56 µM and 1.49 µM and 3.5 µM | 0.231 | 0.148 µM and 0.488 µM | 0.198 µM and 0.204 µM | 0.182 µM and 0.344 µM and 0.376 µM | 1.5 µM and 3.02 µM |  | 0.112 | 0.134 µM and 0.291 µM | 0.326 |  | 0.321 µM and 0.483 µM |  | 1 µM and 0.197 µM |  | 0.822 µM and 1.28 µM | 
COc1ccc(C(=O)/C=C/c2ccc(Cl)cc2)cc1S(N)(=O)=O | 3.24 µM | 12.7 | 2.24 µM | 5.24 µM | 2.14 | 10.6 µM | 4.34 µM | 15.6 µM | 3.04 µM | 10.2 | 3.08 | 8.77 µM | 3.46 | 12.6 | 2.61 µM | 6.53 | 5.89 µM | 20.2 | 2.13 µM | 5.68
C=C1C(=O)OC(CCCCCCCC)C1C(=O)O (stereo unspecified) | 15 µM | 29.1 | 20.2 µM | 40 µM | 15.9 | 30.8 µM | 17.6 µM | 40.4 µM | 17.6 µM | 37.6 | 16.6 | 46.4 µM | 15.3 | 31.8 | 15 µM | 59.7 | 11.9 µM | 27.3 | 14.6 µM | 29.7
NC(=O)C/C=C/CC(N)=O |  | > 100 |  | > 100 µM |  | > 100 µM |  | > 100 µM |  | > 100 |  | > 100 µM |  | > 100 |  | > 100 |  | > 100 |  | > 100
O=C(Nc1ccc(Cl)c(Cl)c1)Nc1ccc(Cl)c([N+](=O)[O-])c1 | 1.3 µM | 4.62 | 0.921 µM | 3.59 µM | 0.845 | 3.56 µM | 1.16 µM | 4.9 µM | 0.688 µM | 2.54 | 0.947 | 14.6 µM | 0.768 | 8.01 | 0.895 µM | 9.47 | 0.915 µM | 4.96 | 1.46 µM | 5.04
N#Cc1c(N)nn(C(=O)c2ccc(NC(=O)c3ccccn3)cc2)c1-c1ccc(Cl)cc1 | 5.68 µM | > 100 | 3.58 µM | > 100 µM | 5.04 | > 100 µM | 4.81 µM | > 100 µM | 3.06 µM | 15.7 | > 100 | > 100 µM | 2.33 | 6.02 | > 100 µM | > 100 | 2.35 µM | 6.45 | 5.52 µM | > 100
Cc1ccc(CCC(=O)Nc2ncc(Cc3cc(Cl)ccc3Cl)s2)o1 | 1.54 µM | > 100 | 0.244 µM | > 42.8 µM | 0.0546 | > 100 µM | 0.0286 µM | 0.0949 µM | 0.176 µM | 2.15 | 0.193 | 0.589 µM | 0.767 | > 20.4 | 0.335 µM | 61.1 | 0.945 µM | > 100 | 0.091 µM | 3.97
CC1(CCCC2(C)CCNC2=O)OCCO1 (stereo unspecified) |  | > 10 |  | > 10 µM |  | > 10 µM |  | > 10 µM |  | > 10 |  | > 10 µM |  | > 10 |  | > 10 |  | > 10 |  | > 10
[O-][n+]1onc2c3nn(-c4ccccc4)nc3ccc21 |  | > 100 |  | > 100 µM |  | > 100 µM |  | > 100 µM |  | > 100 |  | 8.68 µM |  | > 100 |  | 53.3 |  | > 100 |  | > 100
O=C1CCCC1C(=O)Nc1ccc2ccccc2c1 (stereo unspecified) |  | > 100 |  | > 100 µM |  | > 100 µM |  | > 100 µM |  | > 100 |  | > 100 µM |  | > 100 |  | > 100 |  | > 100 |  | > 100
O=C(Nc1nc2ncn(CCOC(=O)c3ccccc3)c2c(=O)[nH]1)c1ccccc1 |  | > 100 |  | > 100 µM |  | > 100 µM |  | 8.32 µM |  | 54.2 |  | > 24.6 µM |  |  |  | > 100 |  | > 100 |  | > 100
